Format in all cases: functional, cell-based
One experiment has as its system MDA-MB-231. Put plainly: Cytotoxicity against human MDA-MB-231 cells by MTT assay. (Tetrazolium assays rely on reduction of a dye to a coloured formazan, in cell work by metabolically active cells.)
For the next experiment, the system named is MCF7. Put plainly: Cytotoxicity against human MCF7 cells by MTT assay.
Another experiment relates to HeLa. Put plainly: Cytotoxicity against human HeLa cells by MTT assay.
Another experiment relates to A549. Put plainly: Cytotoxicity against human A549 cells by MTT assay.

From ChEMBL document CHEMBL2401725, “Synthesis of new chromeno-annulated cis-fused pyrano[4,3-c]isoxazole derivatives via intramolecular nitrone cycloaddition and their cytotoxicity evaluation” (Bioorg Med Chem Lett, 2013) come the findings set out here.

Regarding `Cc1oc2c3c(ccc2c(=O)c1C)OC[C@H]1[C@@H]3N(Cc2ccccc2)OC1(C)C`, the IC50 with MDA-MB-231 is 14.5 µM; in the experiment with MCF7, 5.78 µM; in the experiment on HeLa, > 100 µM; in the experiment on A549 it was 17.9 µM.
For `Cc1oc2c3c(ccc2c(=O)c1C)OC[C@H]1[C@@H]3N(C2CCCCC2)OC1(C)C` the same measures were 7.56 µM, > 100 µM, > 100 µM and 8.96 µM.
For the compound `COc1ccc(CN2OC(C)(C)[C@H]3COc4ccc5c(=O)c(C)c(C)oc5c4[C@H]32)cc1`, the IC50 was 7.81 µM in the experiment on MDA-MB-231, 5.59 µM with MCF7, > 100 µM with HeLa and 11.2 µM in the experiment on A549.
For `Cc1ccc(CN2OC(C)(C)[C@H]3COc4ccc5c(=O)c(C)c(C)oc5c4[C@H]32)cc1` the same measures were 5.64 µM, 26.5 µM, 18.2 µM and 8.92 µM.
For `Cc1oc2c3c(ccc2c(=O)c1C)OC[C@H]1[C@@H]3N(Cc2ccc(C(C)C)cc2)OC1(C)C` the same measures were 6.25 µM, 7.96 µM, > 100 µM and > 100 µM.
For `Cc1oc2c3c(ccc2c(=O)c1C)OC[C@H]1[C@@H]3N(Cc2ccc(F)cc2)OC1(C)C`, in that order: 7.9 µM, 10.1 µM, 9.54 µM and 12.8 µM.
Turning to `Cc1coc2c3c(ccc2c1=O)OC[C@H]1[C@@H]3N(Cc2ccccc2)OC1(C)C`, the IC50 in the experiment with MDA-MB-231 was > 100 µM; with MCF7, > 100 µM; with HeLa, 6.61 µM; with A549, > 100 µM.
For `COc1ccc(CN2OC(C)(C)[C@H]3COc4ccc5c(=O)c(C)coc5c4[C@H]32)cc1`, the IC50 in the experiment on MDA-MB-231 is > 100 µM; in the experiment on MCF7, 7.38 µM; in the experiment on HeLa, 6.54 µM; with A549, 29.4 µM.
As for `Cc1coc2c3c(ccc2c1=O)OC[C@H]1[C@@H]3N(C2CCCCC2)OC1(C)C`, the IC50 was 17.4 µM in the experiment on MDA-MB-231, 22.7 µM in the experiment on MCF7, 17.5 µM in the experiment with HeLa and 0.194 µM with A549.
For `Cc1ccc(CN2OC(C)(C)[C@H]3COc4ccc5c(=O)c(C)coc5c4[C@H]32)cc1` the same measures were > 100 µM, 5.3 µM, > 100 µM and > 100 µM.
For `COc1ccc(CN2OC(C)(C)[C@H]3COc4ccc5c(=O)c(-c6ccccc6)c(C)oc5c4[C@H]32)cc1`, in that order: > 100 µM, > 100 µM, > 100 µM and > 100 µM.
For `COc1cccc2c1C(=O)c1c(O)c3c(c(O)c1C2=O)C[C@@](O)(C(=O)CO)C[C@@H]3O[C@H]1C[C@H](N)[C@H](O)[C@H](C)O1` [DOXORUBICIN] the same measures were 0.501 µM, 1.05 µM, 0.451 µM and 1.21 µM.

The IC50 is the midpoint of a concentration-inhibition curve. A lower IC50 goes with greater potency.
